# pIC50: −log10 of the molar value.
# Legend:
# SNU-182 cells = test: CellTiter-Glo viability assay, SNU-182; format: cell-based; conditions: Homo sapiens, 72 h
# Method: Cells were plated in RPMI culture media (40 μL) in 384-well white, flat-bottom plates (Corning) and incubated at 37° C. in a humidified atmosphere of 5% CO2 overnight. The numbers of cells per well were 1,500 for SNU-398 and SNU-182, 750 for SNU-387, SNU-449, SNU-475 and SNU-423, and 1,000 for H661 and H1299. After overnight incubation, 10 μL of drug (1% DMSO in RPMI) at designed concentrations were added to the cells. The cells were then incubated for 16, 24, 48, 72, or 96 h at 37° C. in a humidified atmosphere of 5% CO2 before CellTiter-Glo reagent (10 μL) was dispensed to the wells. The cells were incubated at room temperature for a minimum of 10 min. After that, luminescence readings were recorded by a Microplate Reader (PHERAstar or Tecan Infinite M200 Pro) according to the manufacturer's instruction for measuring the luminescence.
# SALL4A = target: T1, SALL4A (Homo sapiens, UniProt Q9UJQ4); test: Immunoblot of endogenous SALL4A in SNU-398 HCC cells; format: cell-based; conditions: SNU-398 cells, 24 h, immunoblot quantification
# T1 construct: endogenous in cells; host or cells: SNU-398 HCC cells
# T1 sequence (Q9UJQ4 1-1053): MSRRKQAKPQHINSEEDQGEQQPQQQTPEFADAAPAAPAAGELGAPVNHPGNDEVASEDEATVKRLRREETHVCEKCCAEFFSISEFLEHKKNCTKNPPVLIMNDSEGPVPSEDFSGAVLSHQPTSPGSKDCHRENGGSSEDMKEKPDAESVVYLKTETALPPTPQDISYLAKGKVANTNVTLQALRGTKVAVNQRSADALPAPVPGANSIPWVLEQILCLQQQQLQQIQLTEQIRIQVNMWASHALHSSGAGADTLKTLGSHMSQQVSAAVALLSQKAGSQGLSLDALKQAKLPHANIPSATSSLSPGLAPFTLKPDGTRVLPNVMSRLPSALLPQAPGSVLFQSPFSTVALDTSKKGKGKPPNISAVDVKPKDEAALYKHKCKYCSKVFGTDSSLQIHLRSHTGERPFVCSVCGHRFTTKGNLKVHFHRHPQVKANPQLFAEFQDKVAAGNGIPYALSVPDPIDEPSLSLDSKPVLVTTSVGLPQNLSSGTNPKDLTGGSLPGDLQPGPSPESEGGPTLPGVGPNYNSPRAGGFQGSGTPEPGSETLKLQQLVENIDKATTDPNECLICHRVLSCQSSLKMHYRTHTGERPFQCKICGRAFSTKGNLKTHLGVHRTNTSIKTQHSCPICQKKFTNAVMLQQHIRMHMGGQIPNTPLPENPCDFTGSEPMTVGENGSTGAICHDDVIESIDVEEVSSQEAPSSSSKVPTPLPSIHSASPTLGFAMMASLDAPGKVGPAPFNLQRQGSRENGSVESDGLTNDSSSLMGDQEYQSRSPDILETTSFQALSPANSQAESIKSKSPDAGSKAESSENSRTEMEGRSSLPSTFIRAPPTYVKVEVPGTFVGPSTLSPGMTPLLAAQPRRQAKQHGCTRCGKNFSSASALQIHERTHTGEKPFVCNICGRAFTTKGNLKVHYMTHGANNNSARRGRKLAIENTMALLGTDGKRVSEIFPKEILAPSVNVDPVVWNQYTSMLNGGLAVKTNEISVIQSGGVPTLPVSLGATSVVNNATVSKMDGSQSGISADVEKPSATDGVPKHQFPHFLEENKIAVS
# Method: (§1) RIPA buffer containing freshly added protease inhibitors (2 mM PMSF) and protease inhibitor cocktail was used for cell lysis. The lysed cells were incubated for 10 min on ice and subsequently centrifuged at 4° C. for 10 min at 14,000 rpm. The protein concentrations of cell lysates were assessed using Bradford Assay as per manufacturer's instructions. The samples were denatured using 4× Sample buffer at 95° C. for 5 min. The samples were size resolved using polyacrylamide gel (8%) and Mini-PROTEAN Tetra Cell module. The size-resolved proteins were transferred onto PVDF via electroblotting using Mini Trans-Blot® module. The membrane was blocked using 5% BSA in TBST. The membrane was incubated with appropriate primary antibody (overnight) and secondary antibody (1 h). Immobilon Crescendo Western HRP substrate was used for signal development and images were acquired using darkroom development techniques.
# A head-to-head comparison between the newly discovered SALL4 degrader QE-18-WG07 and IMiDs (Pomalidomide and Thalidomide) was performed. […]
# RBBP4 = test: Immunoblot of RBBP4 in SNU-398 cells; format: cell-based, human; conditions: 16 μM, 24 h
# Method: as §1
# 26S proteasome complex and neddylation was inhibited by cotreating MG132 at 1 and 3 μM and MLN4924 at 10 and 15 μM for 18 h, 20 h, 24 h or 48 h with desired concentrations of QE-18-WG07 in SNU-398, H661 and SNU-182 cells. After 18 h or 24 h of treatment, cells were then lysed and subjected to further protein extraction and immunoblotting by following the protocol in Example 4. For caspase glo assay, 20 h of cotreatment was performed by following the protocol in Example 5. […]
structure (smiles),measurement,setting,value
COc1ccccc1NC(=O)Nc1ccc([N+](=O)[O-])cc1O [QE-18-WG07],Emax at 1 µM,"SNU-182 cells; achieved at 1 μM, read-out: maximum growth inhibition Emax",90 to 100%
same,pIC50,SNU-182 cells; read-out: IC50 of cell viability,6.02
same,DC50,SALL4A,~4230 nM
same,Dmax,SALL4A,57%
same,effect on the level of RBBP4,RBBP4,no observable effect

# — patent US20240335429A1, “MOLECULAR GLUE AND SALL4 DEGRADER” (National University of Singapore, priority 2021, published 2024)
